Experimental data published in paper PMC11576293, “New series of 4,6-diaryl pyrimidines: facile synthesis and antiproliferative activity as dual EGFR/VEGFR-2 inhibitors” (Frontiers in Chemistry, 2024).

Columns and labels:
Assay type in all cases: cell-based
[1] = test system: four cancer cell lines (A-549, MCF-7, Panc-1, HT-29); assay: Antiproliferative assay, average over four cancer cell lines; conditions: Homo sapiens; average of the four cancer cell lines; read-out: Average IC50 (GI50)
Text: Table 2 presents the four cancer cell lines’ median inhibitory concentration (IC50) and GI50 (average IC50) values.
The IC50 values were derived from dose-response tests. The reported data are derived from at least two independent studies, each comprising three replicates per concentration. See Supplementary Material A1 for more details.

SR = assay: NCI-60 single-dose screen; conditions: Homo sapiens, single dose 10 µM, '-' = no inhibition, read-out: % Growth Inhibition
Experimental: (§1) The National Cancer Institute’s Developmental Therapeutic Program (www.dtp.nci.nih.gov) has tested compounds 9–29 (except compounds 21 and 22) against 60 cancer cell lines from nine types (leukemia, lung, colon, CNS, melanoma, ovarian, renal, prostate, and breast cancer) at a single dose (10 μM) ([El-Sherief et al., 2018]). […] The most sensitive cells included leukemia (SR, K-562, and MOLT-4), lung (NCI-H522, […], and EKVX), breast (MCF-7 and T-47D), colon (HCT-15 and HT-29), and ovarian (NCI/ADR-RES).
(§2) The National Cancer Institute’s Developmental Therapeutic Program (www.dtp.nci.nih.gov) evaluated compounds 9–29 (excluding 21 and 22) against 60 cancer cell lines from nine categories (leukemia, lung, colon, CNS, melanoma, ovarian, renal, prostate, and breast cancer) at a single dose (10 μM) ([El-Sherief et al., 2018]). See Supplementary Material A1 for more details.

HCC-2998 = assay: NCI-60 single-dose screen; conditions: Homo sapiens, single dose 10 µM, '-' = no inhibition, read-out: % Growth Inhibition
Experimental: as §1, §2

TK-10 = assay: NCI-60 single-dose screen; conditions: Homo sapiens, single dose 10 µM, '-' = no inhibition, read-out: % Growth Inhibition
Experimental: as §1, §2

SK-OV-3 = assay: NCI-60 single-dose screen; conditions: Homo sapiens, single dose 10 µM, '-' = no inhibition, read-out: % Growth Inhibition
Experimental: as §1, §2

NCI/ADR-RES = assay: NCI-60 single-dose screen; conditions: Homo sapiens, single dose 10 µM, '-' = no inhibition, read-out: % Growth Inhibition
Experimental: as §1, §2

UACC-257 = assay: NCI-60 single-dose screen; conditions: Homo sapiens, single dose 10 µM, '-' = no inhibition, read-out: % Growth Inhibition
Experimental: as §1, §2

UO-31 = assay: NCI-60 single-dose screen; conditions: Homo sapiens, single dose 10 µM, '-' = no inhibition, read-out: % Growth Inhibition
Experimental: as §1, §2

SN12C = assay: NCI-60 single-dose screen; conditions: Homo sapiens, single dose 10 µM, '-' = no inhibition, read-out: % Growth Inhibition
Experimental: as §1, §2

CAKI-1 = assay: NCI-60 single-dose screen; conditions: Homo sapiens, single dose 10 µM, '-' = no inhibition, read-out: % Growth Inhibition
Experimental: as §1, §2

MDA-MB231/ATCC = assay: NCI-60 single-dose screen; conditions: Homo sapiens, MDA-MB-231, single dose 10 µM, '-' = no inhibition, read-out: % Growth Inhibition
Experimental: as §1, §2

K-562 = assay: NCI-60 single-dose screen; conditions: Homo sapiens, K562, single dose 10 µM, '-' = no inhibition, read-out: % Growth Inhibition
Experimental: as §1, §2

MDA-MB-468 = assay: NCI-60 single-dose screen; conditions: Homo sapiens, single dose 10 µM, '-' = no inhibition, read-out: % Growth Inhibition
Experimental: as §1, §2

786-0 = assay: NCI-60 single-dose screen; conditions: Homo sapiens, single dose 10 µM, '-' = no inhibition, read-out: % Growth Inhibition
Experimental: as §1, §2

HT29 = assay: NCI-60 single-dose screen; conditions: Homo sapiens, HT-29, single dose 10 µM, '-' = no inhibition, read-out: % Growth Inhibition
Experimental: as §1, §2

IGROV1 = assay: NCI-60 single-dose screen; conditions: Homo sapiens, IGROV-1, single dose 10 µM, '-' = no inhibition, read-out: % Growth Inhibition
Experimental: as §1, §2

OVCAR-5 = assay: NCI-60 single-dose screen; conditions: Homo sapiens, single dose 10 µM, '-' = no inhibition, read-out: % Growth Inhibition
Experimental: as §1, §2

RPMI-8226 = assay: NCI-60 single-dose screen; conditions: Homo sapiens, single dose 10 µM, '-' = no inhibition, read-out: % Growth Inhibition
Experimental: as §1, §2

SK-MEL-5 = assay: NCI-60 single-dose screen; conditions: Homo sapiens, single dose 10 µM, '-' = no inhibition, read-out: % Growth Inhibition
Experimental: as §1, §2

OVCAR-8 = assay: NCI-60 single-dose screen; conditions: Homo sapiens, single dose 10 µM, '-' = no inhibition, read-out: % Growth Inhibition
Experimental: as §1, §2

RXF 393 = assay: NCI-60 single-dose screen; conditions: Homo sapiens, single dose 10 µM, '-' = no inhibition, read-out: % Growth Inhibition
Experimental: as §1, §2

BT-549 = assay: NCI-60 single-dose screen; conditions: Homo sapiens, single dose 10 µM, '-' = no inhibition, read-out: % Growth Inhibition
Experimental: as §1, §2

NCI-H522 = assay: NCI-60 single-dose screen; conditions: Homo sapiens, single dose 10 µM, '-' = no inhibition, read-out: % Growth Inhibition
Experimental: as §1, §2

SNB-19 = assay: NCI-60 single-dose screen; conditions: Homo sapiens, single dose 10 µM, '-' = no inhibition, read-out: % Growth Inhibition
Experimental: as §1, §2

HOP-92 = assay: NCI-60 single-dose screen; conditions: Homo sapiens, single dose 10 µM, '-' = no inhibition, read-out: % Growth Inhibition
Experimental: as §1, §2

SF-268 = assay: NCI-60 single-dose screen; conditions: Homo sapiens, single dose 10 µM, '-' = no inhibition, read-out: % Growth Inhibition
Experimental: as §1, §2

COLO 205 = assay: NCI-60 single-dose screen; conditions: Homo sapiens, single dose 10 µM, '-' = no inhibition, read-out: % Growth Inhibition
Experimental: as §1, §2

HS 578T = assay: NCI-60 single-dose screen; conditions: Homo sapiens, single dose 10 µM, '-' = no inhibition, read-out: % Growth Inhibition
Experimental: as §1, §2

HCT-116 = assay: NCI-60 single-dose screen; conditions: Homo sapiens, single dose 10 µM, '-' = no inhibition, read-out: % Growth Inhibition
Experimental: as §1, §2

UACC-62 = assay: NCI-60 single-dose screen; conditions: Homo sapiens, single dose 10 µM, '-' = no inhibition, read-out: % Growth Inhibition
Experimental: as §1, §2

OVCAR-4 = assay: NCI-60 single-dose screen; conditions: Homo sapiens, single dose 10 µM, '-' = no inhibition, read-out: % Growth Inhibition
Experimental: as §1, §2

DU-145 = assay: NCI-60 single-dose screen; conditions: Homo sapiens, single dose 10 µM, '-' = no inhibition, read-out: % Growth Inhibition
Experimental: as §1, §2

SF-539 = assay: NCI-60 single-dose screen; conditions: Homo sapiens, single dose 10 µM, '-' = no inhibition, read-out: % Growth Inhibition
Experimental: as §1, §2

NCI-H460 = assay: NCI-60 single-dose screen; conditions: Homo sapiens, single dose 10 µM, '-' = no inhibition, read-out: % Growth Inhibition
Experimental: as §1, §2

U251 = assay: NCI-60 single-dose screen; conditions: Homo sapiens, U-251, single dose 10 µM, '-' = no inhibition, read-out: % Growth Inhibition
Experimental: as §1, §2

SK-MEL-28 = assay: NCI-60 single-dose screen; conditions: Homo sapiens, single dose 10 µM, '-' = no inhibition, read-out: % Growth Inhibition
Experimental: as §1, §2

ACHN 1 = assay: NCI-60 single-dose screen; conditions: Homo sapiens, single dose 10 µM, '-' = no inhibition, read-out: % Growth Inhibition
Experimental: as §1, §2

SK-MEL-2 = assay: NCI-60 single-dose screen; conditions: Homo sapiens, single dose 10 µM, '-' = no inhibition, read-out: % Growth Inhibition
Experimental: as §1, §2

OVCAR-3 = assay: NCI-60 single-dose screen; conditions: Homo sapiens, single dose 10 µM, '-' = no inhibition, read-out: % Growth Inhibition
Experimental: as §1, §2

A549/ATCC = assay: NCI-60 single-dose screen; conditions: Homo sapiens, single dose 10 µM, '-' = no inhibition, read-out: % Growth Inhibition
Experimental: as §1, §2

NCI-H23 = assay: NCI-60 single-dose screen; conditions: Homo sapiens, single dose 10 µM, '-' = no inhibition, read-out: % Growth Inhibition
Experimental: as §1, §2

HL-60(TB) = assay: NCI-60 single-dose screen; conditions: Homo sapiens, single dose 10 µM, '-' = no inhibition, read-out: % Growth Inhibition
Experimental: as §1, §2

PC-3 = assay: NCI-60 single-dose screen; conditions: Homo sapiens, single dose 10 µM, '-' = no inhibition, read-out: % Growth Inhibition
Experimental: as §1, §2

NCI-H322M = assay: NCI-60 single-dose screen; conditions: Homo sapiens, single dose 10 µM, '-' = no inhibition, read-out: % Growth Inhibition
Experimental: as §1, §2

`COc1ccc(CSc2nc(-c3ccc(Cl)cc3)cc(-c3ccc(OC)cc3)n2)cc1` [Compound 15, 2-(4-Methoxybenzylthio)-4-(4-chlorophenyl)-6-(4-methoxyphenyl)pyrimidine] showed an IC50 [1] of 80 nM, an inhibition at 10 µM (SR) of 8.9% and an inhibition at 10 µM (HCC-2998) of less than 0%. The inhibition at 10 µM (TK-10) was less than 0%, the inhibition at 10 µM (SK-OV-3) was less than 0% and the inhibition at 10 µM (NCI/ADR-RES) was less than 0%. For the same molecule, the inhibition at 10 µM (UACC-257) was less than 0%, the inhibition at 10 µM (UO-31) was less than 0% and the inhibition at 10 µM (SN12C) was 11.3%. It also gave an inhibition at 10 µM (CAKI-1) of less than 0%, an inhibition at 10 µM (MDA-MB231/ATCC) of less than 0% and an inhibition at 10 µM (K-562) of 12.8%. The inhibition at 10 µM (MDA-MB-468) was less than 0%, the inhibition at 10 µM (786-0) was less than 0% and the inhibition at 10 µM (HT29) was 4.35%. For the same molecule, the inhibition at 10 µM (IGROV1) was less than 0%, the inhibition at 10 µM (OVCAR-5) was less than 0% and the inhibition at 10 µM (RPMI-8226) was less than 0%. It also gave an inhibition at 10 µM (SK-MEL-5) of less than 0%, an inhibition at 10 µM (OVCAR-8) of 1.69% and an inhibition at 10 µM (RXF 393) of less than 0%. It also gave an inhibition at 10 µM (BT-549) of less than 0%, an inhibition at 10 µM (NCI-H522) of less than 0% and an inhibition at 10 µM (SNB-19) of less than 0%. For the same molecule, the inhibition at 10 µM (HOP-92) was less than 0%, the inhibition at 10 µM (SF-268) was less than 0% and the inhibition at 10 µM (COLO 205) was 2.89%. The inhibition at 10 µM (HS 578T) was 9.27%, the inhibition at 10 µM (HCT-116) was less than 0% and the inhibition at 10 µM (UACC-62) was less than 0%. The inhibition at 10 µM (OVCAR-4) was less than 0%, the inhibition at 10 µM (DU-145) was 0.47% and the inhibition at 10 µM (SF-539) was less than 0%. It also gave an inhibition at 10 µM (NCI-H460) of less than 0%, an inhibition at 10 µM (U251) of less than 0% and an inhibition at 10 µM (SK-MEL-28) of less than 0%. It also gave an inhibition at 10 µM (ACHN 1) of 15.8%, an inhibition at 10 µM (SK-MEL-2) of less than 0% and an inhibition at 10 µM (OVCAR-3) of 5.05%. The inhibition at 10 µM (A549/ATCC) was less than 0%, the inhibition at 10 µM (NCI-H23) was 4.6% and the inhibition at 10 µM (HL-60(TB)) was 3.01%. It also gave an inhibition at 10 µM (PC-3) of 17.5% and an inhibition at 10 µM (NCI-H322M) of less than 0%.
